# Experimental data published in patent publication US4486419A, “5,2',3',4',4",6"-Hexadeoxykanamycin and its 1-N-acylated derivative” (Zaidan Hojin Biseibutsu Kagaku Kenkyu Kai, priority 1982, dated 1984).
# Key:
# Providencia 2991 = format: cell-based; conditions: nutrient agar, 37° C., 18 hours
# [1] = system: Klebsiella pneumoniae PCI 602; format: cell-based; conditions: PCI602, nutrient agar, 37° C., 18 hours
# Escherichia coli K-12 = format: cell-based; conditions: K12, nutrient agar, 37° C., 18 hours
# [2] = system: Staphylococcus aureus Smith; format: cell-based; conditions: nutrient agar, 37° C., 18 hours
# [3] = system: Bacillus subtilis PCI 219; format: cell-based; conditions: PCI219, nutrient agar, 37° C., 18 hours
# [4] = system: Pseudomonas aeruginosa ROS134/PU21; format: cell-based; conditions: ROS134/PU21, 18 h
# [5] = system: Pseudomonas maltophilia GN907; format: cell-based; conditions: Stenotrophomonas maltophilia, nutrient agar, 37° C., 18 hours
# [6] = system: Staphylococcus epidermidis 109; format: cell-based; conditions: nutrient agar, 37° C., 18 hours
# [7] = system: Pseudomonas aeruginosa A3; format: cell-based; conditions: A3, 18 h
# Providencia Pv 16 = format: cell-based; conditions: PV16, nutrient agar, 37° C., 18 hours
# Serratia SOU = format: cell-based; conditions: nutrient agar, 37° C., 18 hours
# [8] = system: Pseudomonas aeruginosa K-Ps102; format: cell-based; conditions: KPS102, 18 h
# Proteus rettgeri GN466 = format: cell-based; conditions: Providencia rettgeri, nutrient agar, 37° C., 18 hours
# [9] = system: Bacillus subtilis NRRL B-558; format: cell-based; conditions: NRRLB558, nutrient agar, 37° C., 18 hours
# [10] = system: Escherichia coli K-12 ML 1410 R81; test: microbe, parasite or virus in culture; format: cell-based; conditions: 18 h
# [11] = system: Salmonella enteritidis 1891; format: cell-based; conditions: Salmonella enterica, nutrient agar, 37° C., 18 hours
# [12] = system: Pseudomonas aeruginosa 99; format: cell-based; conditions: Pseudomonas aeruginosa, 99, 18 h
# Serratia 4 = format: cell-based; conditions: nutrient agar, 37° C., 18 hours
# Proteus vulgaris OX19 = format: cell-based; conditions: nutrient agar, 37° C., 18 hours
# [13] = system: Mycobacterium smegmatis ATCC 607; format: cell-based; conditions: Mycolicibacterium smegmatis, ATCC607; nutrient agar, 37° C., 18 hours
# Shigella sonnei JS11746 = format: cell-based; conditions: nutrient agar, 37° C., 18 hours
# [14] = system: Escherichia coli K-12 ML 1629; format: cell-based; conditions: K12ML1629, nutrient agar, 37° C., 18 hours
# Serratia marcescens = test: microbe, parasite or virus in culture; conditions: 18 h
# Procedure: (§1) Thus, the minimum inhibitory concentrations (mcg/ml) of the hexadeoxykanamycin and of the hexadeoxyamikacin according to this invention against various microorganisms were determined according to serial dilution method on a nutrient agar medium at 37° C., the estimation being made after 18 hours incubation. For comparison purpose, the minimum inhibitory concentrations of amikacin were also determined in the same manner as stated above.
# [15] = system: Corynebacterium bovis 1810; test: microbe, parasite or virus in culture; conditions: Corynebacterium bovis, 1810, 18 h
# Procedure: as §1
# [16] = system: Klebsiella pneumoniae 22 #3038; format: cell-based; conditions: nutrient agar, 37° C., 18 hours
# [17] = system: Escherichia coli K-12 LA 290 R55; test: microbe, parasite or virus in culture; format: cell-based; conditions: K12LA290R55, 18 h
# [18] = system: Pseudomonas aeruginosa B-13; format: cell-based; conditions: B13, 18 h
# [19] = system: Escherichia coli K-12 LA 290 R64; test: microbe, parasite or virus in culture; format: cell-based; conditions: K12LA290R64, 18 h
# [20] = system: Escherichia coli K-12 R 388; format: cell-based; conditions: K12R388, 18 h
# [21] = system: Pseudomonas aeruginosa H11; format: cell-based; conditions: nutrient agar, 37° C., 18 hours
# [22] = system: Pseudomonas aeruginosa PST1; format: cell-based; conditions: nutrient agar, 37° C., 18 hours
# Escherichia coli JR255 = test: microbe, parasite or virus in culture; format: cell-based; conditions: JR255, 18 h
# Escherichia coli W677 = format: cell-based; conditions: nutrient agar, 37° C., 18 hours
# [23] = system: Micrococcus luteus PCI 1001; format: cell-based; conditions: PCI1001, nutrient agar, 37° C., 18 hours
# [24] = system: Escherichia coli K-12 C 600R135; test: microbe, parasite or virus in culture; format: cell-based; conditions: K12C600R135, 18 h
# [25] = system: Pseudomonas aeruginosa GN315; format: cell-based; conditions: nutrient agar, 37° C., 18 hours
# [26] = system: Escherichia coli JR66/W677; format: cell-based; conditions: JR66/W677, 18 h
# [27] = system: Escherichia coli K-12 J5R 11-2; format: cell-based; conditions: K12J5R112, nutrient agar, 37° C., 18 hours
# [28] = system: Shigella flexneri 4b JS11811; format: cell-based; conditions: 4BJS11811, nutrient agar, 37° C., 18 hours
# [29] = system: Pseudomonas aeruginosa H9; format: cell-based; conditions: H9, 18 h
# [30] = system: Staphylococcus aureus FDA 209P; format: cell-based; conditions: FDA209P, nutrient agar, 37° C., 18 hours
# [31] = system: Pseudomonas aeruginosa No. 12; format: cell-based; conditions: nutrient agar, 37° C., 18 hours
compound,measurement,setting,value
"C[C@@H]1C[C@H](N)[C@@H](O)[C@@H](O[C@@H]2C[C@H](O[C@@H]3CCC[C@@H](CN)O3)[C@@H](N)C[C@H]2N)O1 [Hexadeoxykanamycin, 5,2',3',4',4"",6""-hexadeoxykanamycin]",MIC,Providencia 2991,50 µg/mL
same,MIC,[1],1.56 µg/mL
same,MIC,Escherichia coli K-12,1.56 µg/mL
same,MIC,[2],0.78 µg/mL
same,MIC,[3],0.78 µg/mL
same,MIC,[4],> 100 µg/mL
same,MIC,[5],> 100 µg/mL
same,MIC,[6],3.13 µg/mL
same,MIC,[7],3.13 µg/mL
same,MIC,Providencia Pv 16,12.5 µg/mL
same,MIC,Serratia SOU,> 100 µg/mL
same,MIC,[8],> 100 µg/mL
same,MIC,Proteus rettgeri GN466,1.56 µg/mL
same,MIC,[9],0.78 µg/mL
same,MIC,[10],25 µg/mL
same,MIC,[11],1.56 µg/mL
same,MIC,[12],> 100 µg/mL
same,MIC,Serratia 4,25 µg/mL
same,MIC,Proteus vulgaris OX19,1.56 µg/mL
same,MIC,[13],0.78 µg/mL
same,MIC,Shigella sonnei JS11746,3.13 µg/mL
same,MIC,[14],25 µg/mL
same,MIC,Serratia marcescens,6.25 µg/mL
same,MIC,[15],6.25 µg/mL
same,MIC,[16],> 100 µg/mL
same,MIC,[17],100 µg/mL
same,MIC,[18],> 100 µg/mL
same,MIC,[19],25 µg/mL
same,MIC,[20],1.56 µg/mL
same,MIC,[21],> 100 µg/mL
same,MIC,[22],> 100 µg/mL
same,MIC,Escherichia coli JR255,1.56 µg/mL
same,MIC,Escherichia coli W677,1.56 µg/mL
same,MIC,[23],12.5 µg/mL
same,MIC,[24],1.56 µg/mL
same,MIC,[25],> 100 µg/mL
same,MIC,[26],> 100 µg/mL
same,MIC,[27],25 µg/mL
same,MIC,[28],6.25 µg/mL
same,MIC,[29],100 µg/mL
same,MIC,[30],1.56 µg/mL
same,MIC,[31],50 µg/mL
